Test results from patent US20260240784A1, “PHARMACEUTICAL COMPOSITIONS WITH IMPROVED DISSOLUTION” (Applied Materials, Inc., priority 2023, published 2026).
Read-outs that look alike come from different tables or passages of the source.

Experiments:
[1] = In vivo pharmacokinetic study in Beagle dogs; conditions: dog, Beagle dogs (n=6)
in vivo = conditions: Wistar, rat, po

CC(C)OC(=O)C(C)(C)Oc1ccc(C(=O)c2ccc(Cl)cc2)cc1 [uncoated particles, fenofibrate]
AUC(0-t) ([1]; read-out: AUC0-t, Arithmetic Mean): 8690 ng·h/mL | AUC(0-t) ([1]; read-out: AUC0-t, Geometric Mean): 7800 ng·h/mL | Cmax ([1]; read-out: Cmax, Arithmetic Mean): 497 ng/mL | Cmax ([1]; read-out: Cmax, Geometric Mean): 430 ng/mL | AUC (in vivo): 149000 ng·h/mL | Cmax (in vivo): 12000 ng/mL | Tmax (in vivo): 4 h
